Data from PubChem BioAssay AID540264 (Southern Research Specialized Biocontainment Screening …, 2011).
pIC50: −log10 of the molar value. “And” between values parts separate entries of the source, which are not always exact repeats. Identical values can stand only once. The source made the active and inactive calls.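 The calls were made as follows: active = CPE inhibition of 50% or more; inactive = the rest.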

Test system: not listed separately
Test: protection of HEp-2 cells from RSV killing – RSV Long, luminescence, synthesized compounds, set 11, dose response (AID 540264)
Settings: HEp-2 RSV Long CPE inhibition, luminescence; at 200 µM (top of the series)

| SMILES | CPE inhibition |
| --- | --- |
| COCCCNC(=O)c1ccc(Cn2c(=O)c3ccccc3n(Cc3ccccc3Br)c2=O)cc1 | 0.32% (inactive) |
| COCCCNC(=O)c1ccc(Cn2c(=O)c3cc(Cl)ccc3n(Cc3ccc(C)cc3)c2=O)cc1 | 5.48% (inactive) |
| COCCCNC(=O)c1ccc(Cn2c(=O)c3ccccc3n(Cc3ccccc3F)c2=O)cc1 | 1.77% (inactive) |

Test system: HEp-2 RSV Long CPE inhibition, luminescence
Test: as above
Settings: not given

| SMILES | pIC50 |
| --- | --- |
| Cc1ccc(Cn2c(=O)n(Cc3ccc(C(=O)Nc4ccncc4)cc3)c(=O)c3ccccc32)cc1 | 5.20 |
| Cc1ccc(Cn2c(=O)n(Cc3ccc(C(=O)NCCCOC(C)C)cc3)c(=O)c3ccccc32)cc1 | 5.78 |
| CCOCCCNC(=O)c1ccc(Cn2c(=O)c3ccccc3n(Cc3ccc(C)cc3)c2=O)cc1 | 5.76 |
| COCCCNC(=O)c1ccc(Cn2c(=O)c3ccccc3n(Cc3cccc(Br)c3)c2=O)cc1 | 5.67 |
| Cc1ccc(Cn2c(=O)n(Cc3ccc(C(=O)NCCCN(C)C)cc3)c(=O)c3ccccc32)cc1 | 5.03 |
| COCCCNC(=O)c1ccc(Cn2c(=O)c3ccccc3n(Cc3ccc(F)cc3)c2=O)cc1 | 5.30 |
| Cc1ccc(Cn2c(=O)n(Cc3ccc(C(=O)NC(C)(C)C)cc3)c(=O)c3ccccc32)cc1 | 5.74 |
| Cc1ccc(C)c(NC(=O)[C@@H]2CCCN2S(=O)(=O)c2cccc3cccnc23)c1 | 5.82 and 5.77 |
